The structures appear in SMILES notation.

The target of data set [1] is T1, 5-hydroxytryptamine receptor 1A (Rattus norvegicus, UniProt P19327). Note: in other assays of this panel Not Active means under 50% inhibition at 10 µM.
T1 sequence (P19327 whole entry): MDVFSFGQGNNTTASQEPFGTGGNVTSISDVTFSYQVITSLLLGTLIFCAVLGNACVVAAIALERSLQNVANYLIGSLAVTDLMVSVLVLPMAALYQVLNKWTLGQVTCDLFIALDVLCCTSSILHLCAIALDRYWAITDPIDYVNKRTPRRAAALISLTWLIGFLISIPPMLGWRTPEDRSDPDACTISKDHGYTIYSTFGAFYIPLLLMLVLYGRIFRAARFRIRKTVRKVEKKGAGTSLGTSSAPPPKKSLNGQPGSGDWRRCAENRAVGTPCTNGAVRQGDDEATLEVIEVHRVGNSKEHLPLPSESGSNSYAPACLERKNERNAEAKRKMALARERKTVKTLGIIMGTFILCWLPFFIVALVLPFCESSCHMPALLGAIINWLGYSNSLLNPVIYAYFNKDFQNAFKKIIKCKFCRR
Type of data set: cell membranes, Membrane. The conditions noted are these: cho-k1.

The nature of data set [2]: DRUGMATRIX: Tumor Necrosis Factor (TNF), Non-Selective radioligand binding (ligand: [125I] TNF-alpha). The conditions noted are these: u-937; Not Active = under 50% inhibition at 10 µM. Type of data set: cell membranes, Membrane.
The target of data set [3] is T2, Muscarinic acetylcholine receptor M2 (Homo sapiens, UniProt P08172). Note: in other assays of this panel Not Active means under 50% inhibition at 10 µM.
T2 sequence (P08172 whole entry): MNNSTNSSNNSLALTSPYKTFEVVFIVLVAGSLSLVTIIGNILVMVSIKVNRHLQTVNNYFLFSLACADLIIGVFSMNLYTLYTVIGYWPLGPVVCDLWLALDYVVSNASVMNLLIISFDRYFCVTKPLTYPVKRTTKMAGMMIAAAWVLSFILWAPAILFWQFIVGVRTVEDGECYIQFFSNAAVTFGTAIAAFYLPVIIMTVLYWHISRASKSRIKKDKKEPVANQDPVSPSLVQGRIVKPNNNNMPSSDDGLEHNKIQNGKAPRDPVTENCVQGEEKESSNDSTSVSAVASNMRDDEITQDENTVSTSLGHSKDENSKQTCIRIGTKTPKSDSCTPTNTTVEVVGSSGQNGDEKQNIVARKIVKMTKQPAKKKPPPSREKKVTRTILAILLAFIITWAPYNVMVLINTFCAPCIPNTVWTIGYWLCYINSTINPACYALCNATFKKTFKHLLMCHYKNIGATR
Type of data set: cell membranes, CHO-K1, Membrane. The conditions noted are these: cho-k1.

A further data set deals with T3, Adenosine receptor A1 (Homo sapiens, UniProt P30542).
T3 sequence (P30542 whole entry): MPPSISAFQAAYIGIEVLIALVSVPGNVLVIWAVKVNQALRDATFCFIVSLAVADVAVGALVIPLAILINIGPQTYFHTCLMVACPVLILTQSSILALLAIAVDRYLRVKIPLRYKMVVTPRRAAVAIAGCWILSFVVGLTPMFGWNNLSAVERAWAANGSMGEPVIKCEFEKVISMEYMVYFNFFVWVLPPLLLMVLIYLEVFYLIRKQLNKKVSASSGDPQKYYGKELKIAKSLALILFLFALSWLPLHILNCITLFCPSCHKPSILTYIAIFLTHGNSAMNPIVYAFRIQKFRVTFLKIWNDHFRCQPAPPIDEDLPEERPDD
Type of data set: cell membranes, Membrane. The conditions noted are these: cho.

Data set [4] has as its target Sodium-dependent noradrenaline transporter (Homo sapiens, UniProt P23975). The experiment in a line: DRUGMATRIX: Norepinephrine Transporter radioligand binding (ligand: [125I] RTI-55). Type of data set: cell membranes, MDCK, Membrane. The conditions noted are these: Not Active = under 50% inhibition at 10 µM.
The target of a further data set is T4, Interstitial collagenase (Homo sapiens, UniProt P03956).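 Note: MMP-1 enzyme inhibition assay using a peptide substrate; in other assays of this panel Not Active means under 50% inhibition at 10 µM.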
T4 sequence (P03956 whole entry): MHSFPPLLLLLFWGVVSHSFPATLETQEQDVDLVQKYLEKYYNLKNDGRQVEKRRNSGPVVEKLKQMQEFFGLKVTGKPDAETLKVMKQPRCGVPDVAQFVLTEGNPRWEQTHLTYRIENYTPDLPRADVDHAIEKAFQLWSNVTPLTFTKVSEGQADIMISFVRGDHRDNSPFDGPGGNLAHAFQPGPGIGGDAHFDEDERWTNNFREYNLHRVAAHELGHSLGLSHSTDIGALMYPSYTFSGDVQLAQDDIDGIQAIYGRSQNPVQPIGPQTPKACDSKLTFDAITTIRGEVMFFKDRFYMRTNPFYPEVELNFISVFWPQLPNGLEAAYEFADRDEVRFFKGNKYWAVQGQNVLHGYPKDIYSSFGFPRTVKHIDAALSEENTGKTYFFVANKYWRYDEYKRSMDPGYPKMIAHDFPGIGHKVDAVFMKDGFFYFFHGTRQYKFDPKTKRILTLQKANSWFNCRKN
The experiment in a line: biochemical. Type of data set: tissue-based, Rheumatoid synovial fibroblasts.

A further data set addresses Cytochrome P450 2C19 (Homo sapiens, UniProt P33261). The conditions noted are these: bti-tn-5b1-4.
The target of a further data set is T5, B2 bradykinin receptor (Homo sapiens, UniProt P30411). Note: in other assays of this panel Not Active means under 50% inhibition at 10 µM.
T5 sequence (P30411 whole entry): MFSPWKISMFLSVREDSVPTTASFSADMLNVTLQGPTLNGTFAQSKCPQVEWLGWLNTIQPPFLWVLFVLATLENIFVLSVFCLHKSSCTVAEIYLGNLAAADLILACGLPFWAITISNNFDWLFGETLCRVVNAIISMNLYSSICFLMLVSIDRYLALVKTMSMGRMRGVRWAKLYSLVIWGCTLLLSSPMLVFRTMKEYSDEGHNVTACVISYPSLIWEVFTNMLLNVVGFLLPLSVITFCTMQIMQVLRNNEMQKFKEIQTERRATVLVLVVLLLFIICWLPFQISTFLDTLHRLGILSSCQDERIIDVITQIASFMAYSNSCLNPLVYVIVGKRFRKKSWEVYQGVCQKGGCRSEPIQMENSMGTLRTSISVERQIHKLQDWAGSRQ
Type of data set: cell membranes, Membrane. The conditions noted are these: chem-1.

The next data set has as its target T6, Caspase-1 (Homo sapiens, UniProt P29466).
T6 sequence (P29466 whole entry): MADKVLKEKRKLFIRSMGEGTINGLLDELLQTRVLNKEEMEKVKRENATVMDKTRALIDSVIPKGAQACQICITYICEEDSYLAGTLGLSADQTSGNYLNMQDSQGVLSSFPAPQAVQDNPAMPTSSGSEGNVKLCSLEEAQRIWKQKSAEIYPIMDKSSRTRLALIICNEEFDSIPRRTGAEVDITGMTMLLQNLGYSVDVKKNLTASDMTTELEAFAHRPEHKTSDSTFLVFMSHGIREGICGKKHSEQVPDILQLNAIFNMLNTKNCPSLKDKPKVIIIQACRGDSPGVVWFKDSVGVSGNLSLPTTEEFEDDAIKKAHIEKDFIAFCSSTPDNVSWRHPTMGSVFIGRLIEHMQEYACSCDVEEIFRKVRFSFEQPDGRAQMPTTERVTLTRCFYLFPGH
Details: species or system Escherichia coli.

Another data set addresses Cytochrome P450 3A4 (Homo sapiens, UniProt P08684). The conditions noted are these: bti-tn-5b1-4.

Chain of Cytochrome P450 3A4 (P08684 whole entry): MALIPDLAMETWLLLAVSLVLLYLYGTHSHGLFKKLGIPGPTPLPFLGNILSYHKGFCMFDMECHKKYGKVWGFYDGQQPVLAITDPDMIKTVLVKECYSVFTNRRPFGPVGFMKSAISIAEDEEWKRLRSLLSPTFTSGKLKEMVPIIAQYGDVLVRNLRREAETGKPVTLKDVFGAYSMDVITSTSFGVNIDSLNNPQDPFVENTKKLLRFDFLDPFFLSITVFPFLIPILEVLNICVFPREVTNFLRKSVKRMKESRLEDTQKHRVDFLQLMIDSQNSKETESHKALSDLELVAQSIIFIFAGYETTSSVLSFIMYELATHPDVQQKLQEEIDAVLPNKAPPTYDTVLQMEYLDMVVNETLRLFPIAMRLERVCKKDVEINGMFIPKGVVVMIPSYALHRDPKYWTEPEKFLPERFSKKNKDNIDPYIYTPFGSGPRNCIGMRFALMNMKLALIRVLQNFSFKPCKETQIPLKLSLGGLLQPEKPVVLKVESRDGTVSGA
Chain of Cytochrome P450 2C19 (P33261 whole entry): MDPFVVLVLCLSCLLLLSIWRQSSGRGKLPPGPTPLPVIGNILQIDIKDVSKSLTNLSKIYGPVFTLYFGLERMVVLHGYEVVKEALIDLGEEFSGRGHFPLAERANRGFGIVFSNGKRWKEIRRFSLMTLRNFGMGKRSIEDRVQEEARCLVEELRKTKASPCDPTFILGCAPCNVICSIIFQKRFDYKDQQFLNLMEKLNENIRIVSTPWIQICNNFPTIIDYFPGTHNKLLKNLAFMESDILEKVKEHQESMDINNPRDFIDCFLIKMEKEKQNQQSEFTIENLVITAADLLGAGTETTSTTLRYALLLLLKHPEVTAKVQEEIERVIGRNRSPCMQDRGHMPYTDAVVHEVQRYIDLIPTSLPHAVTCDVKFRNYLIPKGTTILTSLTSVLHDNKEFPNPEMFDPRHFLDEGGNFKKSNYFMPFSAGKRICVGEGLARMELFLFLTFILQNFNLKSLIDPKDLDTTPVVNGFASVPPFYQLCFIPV
Chain of Sodium-dependent noradrenaline transporter (P23975 whole entry): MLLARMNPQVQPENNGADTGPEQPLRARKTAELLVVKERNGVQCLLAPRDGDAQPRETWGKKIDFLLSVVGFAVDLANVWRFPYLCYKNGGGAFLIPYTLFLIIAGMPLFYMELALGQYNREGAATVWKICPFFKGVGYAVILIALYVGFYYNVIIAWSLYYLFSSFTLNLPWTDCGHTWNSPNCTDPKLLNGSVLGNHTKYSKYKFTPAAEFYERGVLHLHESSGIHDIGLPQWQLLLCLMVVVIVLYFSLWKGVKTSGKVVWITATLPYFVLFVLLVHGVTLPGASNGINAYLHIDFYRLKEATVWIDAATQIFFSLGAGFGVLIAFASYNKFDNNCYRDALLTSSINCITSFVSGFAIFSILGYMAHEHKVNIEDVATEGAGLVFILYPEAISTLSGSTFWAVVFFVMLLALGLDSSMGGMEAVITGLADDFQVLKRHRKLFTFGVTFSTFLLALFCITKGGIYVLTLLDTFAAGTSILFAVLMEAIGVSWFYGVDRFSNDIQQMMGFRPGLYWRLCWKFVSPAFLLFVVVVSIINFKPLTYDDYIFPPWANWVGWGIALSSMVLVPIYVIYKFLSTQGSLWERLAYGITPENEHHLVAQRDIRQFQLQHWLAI

The term IC50 denotes the midpoint of a concentration-inhibition curve. As a reminder, the Ki is a dissociation constant, usually derived from enzyme kinetics or from competition with a known ligand. Consider `[H]/N=C(/N)N[C@H]1[C@H](O)[C@@H](O)[C@H](O[C@@H]2O[C@@H](C)[C@](O)(C=O)[C@H]2O[C@@H]2O[C@@H](CO)[C@H](O)[C@@H](O)[C@@H]2NC)[C@@H](N/C(N)=N\[H])[C@@H]1O` [STREPTOMYCIN], for which the concentration for half-maximal inhibition (IC50) result (in data set [1]; in data set [2]; in [3]; on Adenosine receptor A1; in data set [4] (mdck); against Interstitial collagenase) was “Not Active” each time. Besides, the IC50 entry against Cytochrome P450 2C19, at B2 bradykinin receptor, at Caspase-1 and at Cytochrome P450 3A4 was “Not Active” in each case. Also, the Ki result (in data set [2]; at Cytochrome P450 2C19; on Cytochrome P450 3A4) was “Not Active” throughout.
With `COc1cc(NS(=O)(=O)c2ccc(N)cc2)nc(OC)n1` [SULFADIMETHOXINE], the IC50 entry (in data set [1]; in [2]; in [3]; at Adenosine receptor A1; in data set [4] (mdck); at Interstitial collagenase) was “Not Active” each time. Also, the IC50 result against Cytochrome P450 2C19, at B2 bradykinin receptor, against Caspase-1 and at Cytochrome P450 3A4 was “Not Active” throughout. Moreover, the inhibition constant (Ki) entry (in data set [2]; at Cytochrome P450 2C19; on Cytochrome P450 3A4) was “Not Active” each time.
As to `Cc1cc(C)nc(NS(=O)(=O)c2ccc(N)cc2)n1` [SULFAMETHAZINE], the IC50 result (in data set [1]; in data set [2]; in data set [3]; against Adenosine receptor A1; in data set [4] (mdck); against Interstitial collagenase) was “Not Active” each time. Moreover, the IC50 entry against Cytochrome P450 2C19, at B2 bradykinin receptor, against Caspase-1 and against Cytochrome P450 3A4 was “Not Active” in each case. Moreover, the Ki result (in data set [2]; at Cytochrome P450 2C19; at Cytochrome P450 3A4) was “Not Active” in each case.
Consider `C[C@]1(Cn2ccnn2)[C@H](C(=O)O)N2C(=O)C[C@H]2S1(=O)=O` [TAZOBACTAM], for which the IC50 entry (in [1]; in data set [2]; in [3]; against Adenosine receptor A1; in data set [4] (mdck); against Interstitial collagenase) was “Not Active” each time. In addition, the IC50 result against Cytochrome P450 2C19, against B2 bradykinin receptor, against Caspase-1 and against Cytochrome P450 3A4 was “Not Active” throughout. Besides, the Ki entry (in data set [2]; on Cytochrome P450 2C19; at Cytochrome P450 3A4) was “Not Active” throughout.
For `CN1C(C(=O)Nc2ccccn2)=C(O)c2sccc2S1(=O)=O` [TENOXICAM], the IC50 entry (in [1]; in [2]; in data set [3]; against Adenosine receptor A1; in [4] (mdck); against Interstitial collagenase) was “Not Active” throughout. Also, the IC50 entry against Cytochrome P450 2C19, against B2 bradykinin receptor, on Caspase-1 and against Cytochrome P450 3A4 was “Not Active” each time. Further, the inhibitory constant (Ki) result (in data set [2]; at Cytochrome P450 2C19; on Cytochrome P450 3A4) was “Not Active” throughout.
For the compound `O=C1CCC(N2C(=O)c3ccccc3C2=O)C(=O)N1` (stereo not drawn) [THALIDOMIDE], the half-maximal inhibitory concentration (IC50) entry (in data set [1]; in data set [2]; in [3]; at Adenosine receptor A1; in data set [4] (mdck); against Interstitial collagenase) was “Not Active” throughout. For the same compound, the IC50 result at Cytochrome P450 2C19, against B2 bradykinin receptor, against Caspase-1 and at Cytochrome P450 3A4 was “Not Active” throughout. The inhibitory constant (Ki) result (in data set [2]; on Cytochrome P450 2C19; on Cytochrome P450 3A4) was “Not Active” in each case.
Turning to `Cc1cccc(Nc2ccncc2S(=O)(=O)NC(=O)NC(C)C)c1` [TORSEMIDE], the IC50 entry (in data set [1]; in [2]; in data set [3]; against Adenosine receptor A1; in [4] (mdck); on Interstitial collagenase) was “Not Active” in each case. Further, the IC50 entry against Cytochrome P450 2C19, on Caspase-1 and on Cytochrome P450 3A4 was “Not Active” in each case. Besides, the Ki entry (in [2]; at Cytochrome P450 2C19; on B2 bradykinin receptor; at Cytochrome P450 3A4) was “Not Active” throughout.
Turning to `CC(C)C[C@H](NC(=O)[C@@H](O)[C@H](N)Cc1ccccc1)C(=O)O` [UBENIMEX], the IC50 result (in data set [1]; in [2]; in [3]; against Adenosine receptor A1; in data set [4] (mdck); at Interstitial collagenase) was “Not Active” each time. Further, the IC50 entry against Cytochrome P450 2C19, against B2 bradykinin receptor, on Caspase-1 and against Cytochrome P450 3A4 was “Not Active” in each case. Besides, the Ki result (in data set [2]; at Cytochrome P450 2C19; on Cytochrome P450 3A4) was “Not Active” each time.
For `Cc1onc(-c2ccccc2)c1-c1ccc(S(N)(=O)=O)cc1` [VALDECOXIB], the IC50 entry in data set [1] is “Not Active”; in data set [2], “Not Active”; in data set [3], “Not Active”; at Adenosine receptor A1, “Not Active”; in data set [4] (read-out: IC50), 2930 nM; against Interstitial collagenase, “Not Active”. In addition, the IC50 result on Cytochrome P450 2C19, at B2 bradykinin receptor, against Caspase-1 and on Cytochrome P450 3A4 was “Not Active” throughout. The Ki result in data set [2] was “Not Active”; in [4] (read-out: Ki) it was 2900 nM; on Cytochrome P450 2C19, “Not Active”; at Cytochrome P450 3A4, “Not Active”.

(Values after ChEMBL document CHEMBL1909046, “DrugMatrix in vitro pharmacology data”.)
